Reference: ChEMBL document CHEMBL5046218, “Novel Dual-Target μ-Opioid Receptor and Dopamine D3 Receptor Ligands as Potential Nonaddictive Pharmacotherapeutics for Pain Management” (J Med Chem, 2021)
Active and inactive are the calls of the source. The rule behind the calls is not given here.

What was measured:
[1] = biological target: T1, D(4) dopamine receptor (Homo sapiens, UniProt P21917); test: Displacement of [3H]-N-methylspiperone from human dopamine D4 receptor expressed in HEK293 cell membranes incubated for 60 mins by microbeta scintillation counting analysis; parameters: species or system Membrane
T1 sequence (P21917 whole entry): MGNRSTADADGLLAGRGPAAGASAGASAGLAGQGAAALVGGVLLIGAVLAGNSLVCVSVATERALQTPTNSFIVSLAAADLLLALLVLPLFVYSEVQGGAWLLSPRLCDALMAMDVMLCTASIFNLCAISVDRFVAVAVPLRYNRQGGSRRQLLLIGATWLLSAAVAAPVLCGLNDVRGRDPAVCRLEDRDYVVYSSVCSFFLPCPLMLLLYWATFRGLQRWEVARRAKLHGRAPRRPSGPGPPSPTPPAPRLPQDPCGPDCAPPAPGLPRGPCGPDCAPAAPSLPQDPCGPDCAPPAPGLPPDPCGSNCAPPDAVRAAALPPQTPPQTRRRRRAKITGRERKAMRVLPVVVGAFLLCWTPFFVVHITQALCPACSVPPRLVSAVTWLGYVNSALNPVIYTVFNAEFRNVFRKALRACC

[2] = biological target: T2, D(2) dopamine receptor (Homo sapiens, UniProt P14416); test: Displacement of [3H]-N-methylspiperone from human dopamine D2 receptor expressed in HEK293 cell membranes incubated for 60 mins by microbeta scintillation counting analysis; parameters: species or system Membrane
[3] = biological target: T3, D(3) dopamine receptor (Homo sapiens, UniProt P35462); test: Displacement of [3H]-N-methylspiperone from human dopamine D3 receptor expressed in HEK293 cell membranes incubated for 60 mins by microbeta scintillation counting analysis; parameters: species or system Membrane
[4] = biological target: T2, D(2) dopamine receptor; test: Displacement of [3H]-(R)-(+)7-OH-DPAT from human dopamine D2 receptor expressed in HEK293 cell membranes incubated for 90 mins by microbeta scintillation counting analysis; parameters: species or system Membrane
[5] = biological target: T3, D(3) dopamine receptor; test: Agonist activity at human dopamine D3 receptor expressed in HEK293T cells assessed as GalphaoA activation preincubated for 5 mins with coelenterazine followed by compound addition and measured after 10 mins by BRET assay; type: functional, cell-based
[6] = biological target: Mu-type opioid receptor (Homo sapiens) (UniProt P35372); conditions: HEK293T, time 10.0 min
[7] = biological target: Mu-type opioid receptor (Homo sapiens) (UniProt P35372); conditions: HEK293T, time 10.0 min; remark: listed apart in the source
[8] = biological target: Mu-type opioid receptor (Homo sapiens) (UniProt P35372); conditions: HEK293T, time 10.0 min; remark: listed apart in the source

T2 sequence (P14416 whole entry): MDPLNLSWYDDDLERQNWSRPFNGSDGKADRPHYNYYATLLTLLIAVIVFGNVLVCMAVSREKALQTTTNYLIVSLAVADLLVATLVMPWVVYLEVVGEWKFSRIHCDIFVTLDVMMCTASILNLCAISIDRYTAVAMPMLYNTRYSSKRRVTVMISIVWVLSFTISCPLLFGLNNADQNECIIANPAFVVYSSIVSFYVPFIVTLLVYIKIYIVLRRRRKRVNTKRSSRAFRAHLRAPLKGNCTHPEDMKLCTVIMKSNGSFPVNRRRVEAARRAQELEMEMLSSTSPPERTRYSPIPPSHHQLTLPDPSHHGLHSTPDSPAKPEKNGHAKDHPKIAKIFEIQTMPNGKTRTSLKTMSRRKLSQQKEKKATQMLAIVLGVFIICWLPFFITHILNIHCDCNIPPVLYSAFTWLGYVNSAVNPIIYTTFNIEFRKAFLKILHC
Sequence of Mu-type opioid receptor (Homo sapiens) (P35372 whole entry): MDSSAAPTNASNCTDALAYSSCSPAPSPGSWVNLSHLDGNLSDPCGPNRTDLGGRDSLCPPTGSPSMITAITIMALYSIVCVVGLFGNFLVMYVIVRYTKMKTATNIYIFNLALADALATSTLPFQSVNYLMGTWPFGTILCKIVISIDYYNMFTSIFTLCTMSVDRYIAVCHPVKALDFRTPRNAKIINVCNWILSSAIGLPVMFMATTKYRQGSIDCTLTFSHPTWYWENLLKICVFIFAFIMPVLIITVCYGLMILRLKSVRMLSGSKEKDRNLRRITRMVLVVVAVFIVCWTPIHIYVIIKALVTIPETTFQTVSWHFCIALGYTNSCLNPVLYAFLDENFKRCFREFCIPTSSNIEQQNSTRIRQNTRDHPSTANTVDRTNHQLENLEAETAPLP
T3 sequence (P35462 whole entry): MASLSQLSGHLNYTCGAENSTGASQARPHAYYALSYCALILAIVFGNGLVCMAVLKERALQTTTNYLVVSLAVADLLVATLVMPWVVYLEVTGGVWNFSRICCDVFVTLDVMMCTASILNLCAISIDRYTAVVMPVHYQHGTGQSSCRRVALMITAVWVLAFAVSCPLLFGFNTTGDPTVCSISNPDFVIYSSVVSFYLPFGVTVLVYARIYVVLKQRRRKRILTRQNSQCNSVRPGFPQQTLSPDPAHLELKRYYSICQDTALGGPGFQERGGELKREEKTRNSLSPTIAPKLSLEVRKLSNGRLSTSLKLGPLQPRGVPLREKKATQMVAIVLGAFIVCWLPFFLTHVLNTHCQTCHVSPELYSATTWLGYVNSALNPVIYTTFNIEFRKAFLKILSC

## O=C(NCCCCN1CC[C@]2(c3cccc(O)c3)CCC[C@H]1[C@H]2O)c1cc2ccccc2[nH]1
[1]
  Ki: 3810 nM
[2]
  Ki: 1310 nM

## CN(C)C(=O)C(CCN1CCC(O)(c2ccc(Cl)cc2)CC1)(c1ccccc1)c1ccccc1 [LOPERAMIDE]
[1]
  Ki: 1850 nM
[2]
  Ki: 5790 nM
[3]
  Ki: […]

## N#CC(CCNCCC(O)CN1CCN(c2cccc(Cl)c2Cl)CC1)(c1ccccc1)c1ccccc1 (configuration not stated)
[1]
  Ki: 426 nM
[2]
  Ki: 903 nM
[3]
  Ki: 460 nM

## N#CC(CCNCCCCN1CCN(c2cccc(Cl)c2Cl)CC1)(c1ccccc1)c1ccccc1
[1]
  Ki: 25.9 nM
[2]
  Ki: 149 nM
[4]
  Ki: 36.3 nM

## CCOC(=O)/C=C1\[C@@H]2CCC[C@@]1(c1cccc(O)c1)CCN2CCc1ccccc1
[1]
  Ki: 5470 nM
[2]
  Ki: 636 nM
[4]
  Ki: 186 nM

## CCc1cc(Cl)c(OC)c(C(=O)NC[C@@H]2CCCN2CCCCNCCC(C(=O)N(C)C)(c2ccccc2)c2ccccc2)c1O
[1]
  Ki: 6610 nM
[2]
  Ki: 1730 nM

## CN(C)C(=O)C(CCNCCCCN1CCc2ccc(C#N)cc2C1)(c1ccccc1)c1ccccc1
[1]
  Ki: 58900 nM
[2]
  Ki: 1240 nM
[3]
  Ki: 1060 nM

## N#CC(CCNCCc1ccccc1)(c1ccccc1)c1ccccc1
[1]
  Ki: 13900 nM
[2]
  Ki: 17600 nM
[3]
  Ki: 8960 nM

## N#CC(CCNCCCCC(=O)N1CCN(c2cccc(Cl)c2Cl)CC1)(c1ccccc1)c1ccccc1
[1]
  Ki: 3930 nM
[2]
  Ki: 1940 nM
[3]
  Ki: 1360 nM

## CCc1cc(Cl)c(OC)c(C(=O)NC[C@@H]2C[C@@H](OCCCCNCCC(C(=O)N(C)C)(c3ccccc3)c3ccccc3)CN2)c1O
[1]
  Ki: 674 nM
[2]
  Ki: 9.41 nM
[3]
  Ki: 2.21 nM

## CN(C)CCC(C(=O)N(C)C)(c1ccccc1)c1ccccc1
[1]
  Ki: 20200 nM
[2]
  Ki: > 100000 nM
[3]
  Ki: 36900 nM

## CN(C)C(=O)C(CCNCCc1ccccc1)(c1ccccc1)c1ccccc1
[1]
  Ki: 12600 nM
[2]
  Ki: 3650 nM
[3]
  Ki: 2080 nM

## CN(C)CCC(C(=O)NCCCCN1CCN(c2cccc(Cl)c2Cl)CC1)(c1ccccc1)c1ccccc1
[1]
  Ki: 466 nM
[2]
  Ki: 42.7 nM
[3]
  Ki: 11.8 nM

## CCOC(=O)/C=C1\[C@@H]2CCC[C@@]1(c1cccc(O)c1)CCN2CC1CC1CCNC(=O)c1cc2ccccc2[nH]1 (some centres not stated)
[1]
  Ki: 23400 nM
[2]
  Ki: 3890 nM
[3]
  Ki: 4350 nM

## N#CC(CCN1CCN(c2cccc(Cl)c2Cl)CC1)(c1ccccc1)c1ccccc1
[1]
  Ki: 8490 nM
[2]
  Ki: 2630 nM
[3]
  Ki: 2240 nM

## CN(C)CCC(C#N)(c1ccccc1)c1ccccc1
[1]
  Ki: 23200 nM
[2]
  Ki: 17900 nM
[3]
  Ki: 16100 nM

## CCC(=O)C(CC(C)N(C)C)(c1ccccc1)c1ccccc1 (configuration not stated) [METHADONE]
[1]
  Ki: 26200 nM
[2]
  Ki: > 100000 nM
[3]
  Ki: 2110 nM

## CCc1cccc(N2CCN(CCC(c3cccc(O)c3)c3cccc(O)c3)CC2)c1Cl
[1]
  Ki: 19.2 nM
[2]
  Ki: 187 nM
[3]
  Ki: 200 nM

## CCOC(=O)/C=C1\[C@@H]2CCC[C@@]1(c1cccc(O)c1)CCN2C[C@H]1C[C@@H]1CCNC(=O)c1cc2ccccc2[nH]1 (relative stereo)
[1]
  Ki: 29200 nM
[5]
  EC50: 1480 nM
[6]
  pEC50: inactive
[2]
  Ki: 2860 nM
[7]
  pEC50: inactive
[8]
  pEC50: inactive
[3]
  Ki: 1290 nM

## CCc1cc(Cl)c(OC)c(C(=O)NCC2CCCN2CC(=O)N2CCC(c3ccccc3)(c3ccccc3)C2)c1O (configuration not stated)
[1]
  Ki: 31000 nM
[2]
  Ki: 2380 nM
[3]
  Ki: 288 nM

## CCOC(=O)/C=C1\[C@@H]2CCC[C@@]1(c1cccc(O)c1)CCN2
[1]
  Ki: > 100000 nM
[2]
  Ki: > 100000 nM
[3]
  Ki: > 100000 nM

## CCOC(=O)/C=C1\[C@@H]2CCC[C@@]1(c1cccc(O)c1)CCN2CCN1CCN(c2cccc(Cl)c2Cl)CC1
[1]
  Ki: 1600 nM
[2]
  Ki: 51.6 nM
